# Paper PMC8524146, “In vitro and in silico characterization of alkaline serine protease from Bacillus subtilis D9 recovered from Saudi Arabia” (Heliyon, 2021)
# Biological target: T1, AKD9 alkaline serine protease (Bacillus subtilis, UniProt A0A5Q0V2V1)
# T1 construct: native enzyme purified from culture supernatant of isolate D9; single band just below 48 kDa; cloned gene 442 aa, 47,789 Da
# Assay: casein hydrolysis, A280 of TCA-soluble products
# Format: biochemical
# Conditions: 100 µM; 0.1 mM TLCK; casein substrate
# Source text: casein hydrolysis, A280 of TCA-soluble products on AKD9 alkaline serine protease
# T1 sequence (A0A5Q0V2V1 1-442): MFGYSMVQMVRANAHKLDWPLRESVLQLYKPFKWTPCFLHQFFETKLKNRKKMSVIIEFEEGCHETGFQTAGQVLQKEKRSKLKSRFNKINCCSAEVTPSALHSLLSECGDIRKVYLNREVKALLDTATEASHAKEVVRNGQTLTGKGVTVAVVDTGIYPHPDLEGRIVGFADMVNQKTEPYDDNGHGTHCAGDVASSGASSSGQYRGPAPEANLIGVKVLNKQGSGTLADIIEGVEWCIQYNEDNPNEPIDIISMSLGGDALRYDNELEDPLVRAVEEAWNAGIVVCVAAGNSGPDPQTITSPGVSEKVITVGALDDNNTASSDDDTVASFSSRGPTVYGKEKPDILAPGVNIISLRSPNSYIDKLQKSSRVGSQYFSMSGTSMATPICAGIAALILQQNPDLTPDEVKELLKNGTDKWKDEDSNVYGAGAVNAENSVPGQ
smiles,measurement,value
Cc1ccc(S(=O)(=O)N[C@@H](CCCCN)C(=O)CCl)cc1 [TLCK],"Residual activity, U/ml",31.5 ± 0.4 U/ml
